Results on one compound are retold here after PMC3408453, “A Foldamer-Dendrimer Conjugate Neutralizes Synaptotoxic β-Amyloid Oligomers” (PLoS ONE, 2012).

Molecules are shown by their SMILES. “And” between values parts separate entries of the source, which are not always exact repeats. Equal values may be shown once.

Data set [1] concerns the target T1, Aβ oligomers (HMW and LMW fractions) (Homo sapiens, UniProt P05067).
T1 construct: a depsipeptide derivative of Aβ(1–42) was utilized; made in house; host or cells: chemical peptide synthesis (no expression host)
Briefly: SEC analysis of Aβ oligomer – ligand mixtures (affinity precipitation). The conditions noted are these: 50 µM Aβ oligomers, injected after filtration. Here is the method: This hypothesis was tested via SEC analysis (Figure 10A). Mixtures of 50 µM Aβ oligomers with 7 in 0.25 and 1.0 equivalents were injected on the SEC column after filtration. […] We concluded that the affinity precipitation occurs for the HMW component, but the LMW fraction is also affected at higher ligand concentrations. […] Thus it was possible to test if the LMW fraction co-elutes with 7. […] The HMW precipitate was also tested for the presence of 7 with LC-MS, and the result confirmed the heterocomplex nature of the product (Figure 10C).
Figure 10 Lower tendency of the LMW Aβ oligomer fraction to affinity precipitation. (A) SEC analysis of pure Aβ oligomers (black) and mixtures of 50 µM Aβ oligomers with 7 in 0.25 (green) and 1.0 (blue) equivalents. The samples were injected on the SEC column after filtration. […] (B) LC-MS results on the LMW fraction taken at 19 min. […] (C) LC-MS results on the HMW precipitate, which confirmed the heterocomplex nature of the product.
iso-Aβ(1–42) was dissolved in sodium hydrocarbonate buffered saline (pH 7.4) to 50 µM and incubated for 24 h at 37°C. The oligomeric Aβ was loaded onto an Äkta Purifier FPLC system (GE Healthcare, UK) equipped with a Superose 6 10 300 column. Sample was eluted at a flow rate of 0.5 ml/min. FPLC chromatogram was taken at 280 nm and 1 ml fractions were collected during the separation.

Data set [2] concerns the target T2, oligomeric Aβ (Homo sapiens, UniProt P05067).
T2 construct: a depsipeptide derivative of Aβ(1–42) was utilized; made in house; host or cells: chemical peptide synthesis (no expression host)
Briefly: ThT binding experiment on oligomeric Aβ. The conditions noted are these: oligomeric Aβ + ligand 1∶1, up to 24 h. The text has this:
(§1) The data on 7 were in agreement with its largely helical structure, also found via NMR. […] This was in accord with the NMR results obtained for the recognition segment 1. The secondary structure was probed also with ThT binding experiments (Figure 9B). Pure Aβ oligomers bound ThT at a certain level. This was in accord with the staining with antibody OC; both are capable of recognizing the fibrillar (or protofibrillar) oligomers. […] The latter process is similar to affinity precipitation.
(§2) (A) Observed ellipticities in ECD for 36 μM Aβ oligomer (thick black), 9 μM 7 (thin black), and 36 μM Aβ +9 μM 7 (thick dashed). The hypothetical sum of the ECD curves of the pure samples (thin dashed). (B) ThT binding experiment carried out on 36 µM oligomeric Aβ (white bars) and on 36 µM oligomeric Aβ +7 1∶1 mixtures. The relative fluorescence values were monitored up to 24 h.
ThT (Sigma-Aldrich) was dissolved in 50 mM NaH2PO4/Na2HPO4 buffer (pH = 7.0) to a final concentration of 25 μM. […] Two identical 50 μM Aβ oligomer samples were prepared and one of them was mixed with 7 to a final concentration of 50 μM, and the ThT signal intensity was monitored up to further 24 h. […] ThT fluorescence was measured on a plate reader at […] and λem = 480 nm. Data mean values and S.D. were calculated from three parallel measurements.

Data set [3] has as its target T3, Aβ oligomers (Homo sapiens, UniProt P05067).
T3 construct: a depsipeptide derivative of Aβ(1–42) was utilized; made in house; host or cells: chemical peptide synthesis (no expression host)
Briefly: Isothermal titration calorimetry (ITC) with Aβ oligomers. Type of data set: binding. As to conditions: 72 μM Aβ oligomer, 288 K. Here is the method: (§3) Binding of 7 to the Aβ oligomers was monitored by means of isothermal titration calorimetry (ITC). […] The titrations were run at 288 K in order to improve the signal to noise ratio, and just above the precipitation limit as the ITC method is sensitive to the thermal noise caused by the stirring of large particles. […] These values strongly supported tight binding between the Aβ oligomer species and 7.
Isothermal titrations were performed with a Microcal VP-ITC microcalorimeter. The binding experiments were performed in PBS pH 7.4. The buffer solution was degassed. The concentrations of the ligands and Aβ were corrected for the material content. In individual titrations, 10 μL of ligand was injected from the computer-controlled 300-μL microsyringe at intervals of 300 s into the Aβ oligomer solution dissolved in the same buffer as the ligand. The microsyringe stirring was set to 295 rpm. All measurements were made at 288 K. The Aβ concentrations in the cell were either 72 μM or 36 μM, and the concentrations of 7 were 175 μM and 222 μM respectively. The total ligand concentration was set in the syringe so that the titration stopped when the precipitation became excessive. Control experiments were performed by injecting the ligand into a cell containing buffer with no target, and the heats of dilution were subtracted from those measured in the presence of Aβ. Titrations were also performed with buffer in the syringe and Aβ oligomer sample in the cell to check for the heat response of Aβ dilution itself. The dilution heat of the Aβ oligomer samples was constant and negligible. Since the target is inherently inhomogeneous, and an a priori model of the binding events is not available,. the experimental data were fitted to the two independent site binding model by using a nonlinear least-squares procedure, with ΔHb, ΔHb', Ka, Ka' (association constants), N and N' (number of binding sites for monomer), as adjustable parameters. The exothermic peaks appearing after the fully precipitated phase was reached, were omitted from the regression.
In general terms: In ITC the heat of successive injections is recorded.

Data set [4] concerns the target T3, Aβ oligomers. Description: Electronic circular dichroism of Aβ oligomer with ligand. As to conditions: 0.25 equivalents ligand with 36 μM Aβ.
Source text: as §1, §2
CD spectra were measured on a Jasco J815 dichrograph in a 1.00 cm cell using PBS (pH = 7.4) as solvent. Three spectra were accumulated for each sample. The baseline spectrum recorded with only the solvent and it was subtracted from the raw data.

Data set [5] has as its target T3, Aβ oligomers. Briefly: Ligand-induced precipitation during ITC titration, followed by DLS. The conditions noted are these: 72 μM Aβ oligomer. Here is the method:
as §3
For DLS measurements, 500 µL Aβ(1–42) solution (c = 72 µM) was prepared in PBS, and placed in a low–volume sizing cell. Size distribution was measured at 25°C on a Malvern Zetasizer Nano ZS Instrument (Malvern Instruments Ltd. Worcestershire, UK) equipped with a He-Ne laser (633 nm) by means of Non-Invasive Back Scatter (NIBS®) technology, which involves detection of the scattered light at an angle of 173°. A titration routine was formulated consisting of 12 independent measurements with a 2-min delay after each. The calculated amount of 7 solution was added to the Aβ after every second measurement. During the titration, the molar quantity of 7 varied between 0–35 µM. For a single measurement, the correlation function and distribution of the apparent hydrodynamic diameter (dh) over the scattered intensity of the particles were determined on the basis of 14 scans. […]

For the compound `N=C(N)NCCC[C@@H](CC(=O)N[C@H]1CCCC[C@@H]1C(=O)N[C@H]1CCCC[C@@H]1C(=O)N[C@@H](CC(=O)O)CC(=O)N[C@H]1CCCC[C@@H]1C(=O)NCC(=O)NCC(=O)N[C@@H](CSC1CC(=O)N(CCC(=O)NCCNC(=O)CCN(CCC(=O)NCCNC(=O)CCN2C(=O)CC(SC[C@H](NC(=O)CNC(=O)CNC(=O)[C@H]3CCCC[C@@H]3NC(=O)C[C@H](CC(=O)O)NC(=O)[C@H]3CCCC[C@@H]3NC(=O)[C@H]3CCCC[C@@H]3NC(=O)C[C@H](CCCNC(=N)N)NC(=O)[C@H]3CCCC[C@@H]3N)C(N)=O)C2=O)CCN(CCC(=O)NCCNC(=O)CCN2C(=O)CC(SC[C@H](NC(=O)CNC(=O)CNC(=O)[C@H]3CCCC[C@@H]3NC(=O)C[C@H](CC(=O)O)NC(=O)[C@H]3CCCC[C@@H]3NC(=O)[C@H]3CCCC[C@@H]3NC(=O)C[C@H](CCCNC(=N)N)NC(=O)[C@H]3CCCC[C@@H]3N)C(N)=O)C2=O)CCC(=O)NCCNC(=O)CCN2C(=O)CC(SC[C@H](NC(=O)CNC(=O)CNC(=O)[C@H]3CCCC[C@@H]3NC(=O)C[C@H](CC(=O)O)NC(=O)[C@H]3CCCC[C@@H]3NC(=O)[C@H]3CCCC[C@@H]3NC(=O)C[C@H](CCCNC(=N)N)NC(=O)[C@H]3CCCC[C@@H]3N)C(N)=O)C2=O)C1=O)C(N)=O)NC(=O)[C@H]1CCCC[C@@H]1N` (stereo partly drawn) [Compound 7], in data set [1] (0.25 equivalents), the “SEC: effect on HMW and LMW Aβ fractions at 0.25 equivalents of ligand” value was “the HMW fraction fully precipitated and disappeared from the SEC chromatogram, whereas the LMW fraction remained intact”. Besides, the “SEC: effect on HMW and LMW Aβ fractions at 1.0 equivalents of ligand” value in data set [1] (1.0 equivalents) was “the HMW fraction again disappeared and a partial decrease was observed for the LMW fraction”. Moreover, in data set [2], the “Effect on ThT binding of Aβ oligomers” value was “no significant effect on the ThT binding”. In addition, in data set [3], the “N (ITC stoichiometry, number of binding sites for monomer; first or single stage)” value was 0.041±0.00089 and 0.041; the “N' (ITC stoichiometry, lower affinity interaction)” value was 0.18±0.002 and 0.18; the “ΔHb (ITC; first binding step for 7, single stage for 8)” value amounted to 7.24 ± 0.05 kcal/mol; the “ΔHb' (ITC, lower affinity interaction)” value was determined as 2.58 ± 0.02 kcal/mol. Besides, in data set [4], the “ECD: effect on β-sheet content of Aβ” value is “did not lead to an immediate increase in the β-sheet content”. The “Concentration-dependent precipitation of Aβ oligomers during titration (ITC/DLS)” value in data set [5] is reported as “the precipitation started just before the equivalence point of the second stage”.
